Measurements from PMC12192727, “Strategies to Develop Na,K-ATPase-α4 Inhibitors as Male Contraceptives” (International Journal of Molecular Sciences, 2025).
Converted amounts (≈) assume the structure as drawn.

Assays:
[1] = Solubility as noted when testing was attempted; format: physicochemical
physchem = format: physicochemical; settings: PBS pH 7.4; read-out: Solubility
Method: The stock solutions of 11 and 45 were prepared in DMSO at a concentration of 30 mM, and the stock solution of the control compound was prepared in DMSO at a concentration of 30 mM. Progesterone was used as a positive control in the assay. An amount of 10 µL of stock solution of each compound was placed in order into their proper 96-well rack, followed by adding 990 µL of PBS at pH 7.4 into each vial of the capless Solubility Sample plate. This study was performed in duplicate. One stir stick was added to each vial and then sealed using a molded PTDE/SIL 96-Well Plate Cover (Pharmaron, Waltman, MA, USA). The Solubility Sample plate was transferred to the Thermomixer Comfort plate shaker and incubated at RT for 2 h with shaking at 1100 rpm. After 2 h of incubation, stir sticks were removed using a big magnet, and all samples from the Solubility Sample plate were transferred into the filter plate. All the samples were filtered using a vacuum manifold. The filtered samples were diluted with methanol. The soluble fraction (filtrate) was then analyzed by LC-MS/MS, and the compound concentration was determined using 0.3 μM standard solutions prepared from DMSO stocks. The experimental details are reported in the Supporting Information (Table S1). […]
Table S1 . Solubility Results of Test C ompound and Control C ompound in […]
Compound ID Solubility (µM)
Preparation of Stock Solutions: The stock solutions of test compounds were prepared in DMSO at the concentration of 30 mM, and the stock solution of control compound was prepared in DMSO at the concentration of 30 mM.
Progesterone was used as positive control in the assay.
Solubility Determination: 10 µL stock solution of each compound was placed in order into their proper 96-well rack, followed by adding 990 µL of PBS at pH 7.4 into each vial of the cap-less Solubility Sample plate. This study was performed in duplicate. One stir stick was added to each vial and then vials were sealed using a molded PTDE/SIL 96-Well Plate Cover. The Solubility Sample plate was transferred to the Thermomixer Comfort plate shaker and incubated at RT for 2 hours with shaking at 1100 rpm. After 2 hours incubation, stir sticks were removed using a big magnet and all samples from the Solubility Sample plate were transferred into the filter plate. All the samples were filtered by using the Vacuum Manifold. The filtered samples were diluted with methanol. The dilution factor might be changed according to the solubility value and the LC/MS signal response. To prepare 0.3 µM Standards (STD), 30 mM DMSO compound stock solutions were diluted with DMSO to 300 µM and then diluted with methanol to obtain 0.3 µM STDs. Samples were analyzed by LC-MS/MS. All calculations were carried out using Microsoft Excel. The solution filtered was analyzed and quantified against a standard of known concentration in DMSO using LC coupled with Mass spectral peak identification and quantitation. The solubility values of the test compounds were calculated as follow DF means the dilution factor
1. Chromatographic conditions
Apparatus: Triple QuadTM 5500 instrument from AB Inc (Canada) with an ESI interface Column: XSelect Hss T3 2.5µ (2.1×50 mm) Column XP coupled with preguard column Mobile phase: 0.1% formic acid in acetonitrile (A) and 0.1% formic acid in water (B) […]

| SMILES | Solubility (in words, precluded testing) [1] | Solubility (physchem) |
| --- | --- | --- |
| C[C@]12CC[C@H]3[C@@H](CC=C4C[C@@H](O)CC[C@@]43C)[C@@H]1CC[C@@H]2n1cc(-c2ccccc2)nn1 [Compound 30, (3S,8R,9S,10R,13S,14S,17S)-10,13-Dimethyl-17-(4-phenyl-1H-1,2,3-triazol-1-yl)-2,3,4,7,8,9,10,11,12,13,14,15,16,17-tetradecahydro-1H-cyclopenta[a]phenanthren-3-ol] | inadequate solubility | – |
| CC12CCC(=O)C=C1CCCC2c1cn(Cc2ccccc2)nn1 (stereo not drawn) [Compound 39, 5-(1-Benzyl-1H-1,2,3-triazol-4-yl)-4a-methyl-4,4a,5,6,7,8-hexahydronaphthalen-2(3H)-one] | poor solubility | – |
| CC(=O)[C@H]1CC[C@H]2[C@@H]3CCC4=CC(=O)CC[C@]4(C)[C@H]3CC[C@]12C [Progesterone, reference compound] | – | 18.0 µM (≈ 5.66 µg/mL) |
